{"source": "patent US4233310A", "about": "“Antiarteriosclerotic N-(mercaptoacyl)-histidines” (Santen Pharmaceutical Co., Ltd., priority 1976, dated 1980)", "key": {"[1]": {"assay": "Hypolipid action in rats fed 2% cholesterol-containing diet (serum and liver lipids)", "format": "in vivo, Wistar strain male rats", "details": "100 mg/kg orally twice a day for one week; for Liver lipid: Cholesterol content / Liver lipid: Phospholipid content / Liver lipid: Triglyceride content / Serum lipid: Cholesterol content / Serum lipid: Phospholipid content / Serum lipid: Triglyceride content: fasted 16 hours, mean ± standard; for Liver lipid: Cholesterol % / Liver lipid: Phospholipid % / Liver lipid: Triglyceride % / Serum lipid: Cholesterol % / Serum lipid: Phospholipid % / Serum lipid: Triglyceride %: % of control (control = 100)", "protocol": "(§1) Pharmacological study (Hypolipid action)\n(§2) A 2% aqueous solution of N-(mercaptoacetyl)-L-histidine and N-(3-mercaptopropionyl)-L-histidine, previously neutralized to pH 7.0 with sodium hydroxide, was administered orally to Wistar strain male rats at a dose of 100 mg/kg twice a day for one week. After the final administration of the test solution, the rats were fasted for 16 hours. Cholesterol, triglyceride and phospholipid levels in serum and liver were determined. The rats were divided into two groups. One group was fed a stock diet, and the other a 2% cholesterol-containing diet.\nGroup fed with cholesterol containing diet"}, "[2]": {"assay": "Hypolipid action in rats fed stock diet (serum and liver lipids)", "format": "in vivo, Wistar strain male rats", "details": "100 mg/kg orally twice a day for one week; for Liver lipid: Cholesterol content / Liver lipid: Phospholipid content / Liver lipid: Triglyceride content / Serum lipid: Cholesterol content / Serum lipid: Phospholipid content / Serum lipid: Triglyceride content: fasted 16 hours, mean ± standard; for Liver lipid: Cholesterol % / Liver lipid: Phospholipid % / Liver lipid: Triglyceride % / Serum lipid: Cholesterol % / Serum lipid: Phospholipid % / Serum lipid: Triglyceride %: % of control (control = 100)", "protocol": "as §1, §2\nGroup fed with stock diet"}, "[3]": {"assay": "Acute toxicity (LD50, intraperitoneal)", "details": "rat, in vivo, ip, 5% solution pH 7.0, 7-day observation, Litchfield-Wilcoxon method", "protocol": "ddy Strain male rats, 4 weeks of age, weighing 18-20 g were placed in a room of constant temperature and humidity (24°±1° C., 55+5%) and fed freely a pellet diet (CE-2, made by Clea Japan Inc.) and water for one week. Out of them, rats showing normal growth were selected for the experiment.\nN-(3-mercaptopropionyl)-L-histidine was added to physiological saline, and was neutralized to pH 7.0 with 4 N sodium hydroxide a 5% solution of this solution was used as the test solution, being administered intraperitoneally to the rats."}}, "data": [{"smiles": "O=C(CS)N[C@@H](Cc1c[nH]cn1)C(=O)O", "note": "[Compound 1, N-(mercaptoacetyl)-L-histidine]", "values": [{"measurement": "Liver lipid: Cholesterol content", "setting": "[1]", "result": "52.4 ± 3.6", "unit": "mg/total liver weight"}, {"measurement": "Liver lipid: Phospholipid content", "setting": "[1]", "result": "112.6 ± 5.8", "unit": "mg/total liver weight"}, {"measurement": "Liver lipid: Triglyceride content", "setting": "[1]", "result": "17.0 ± 1.4", "unit": "mg/total liver weight"}, {"measurement": "Serum lipid: Cholesterol content", "setting": "[1]", "result": "269.5 ± 4.8", "unit": "mg/dL"}, {"measurement": "Serum lipid: Phospholipid content", "setting": "[1]", "result": "178.6 ± 9.8", "unit": "mg/dL"}, {"measurement": "Serum lipid: Triglyceride content", "setting": "[1]", "result": "81.4 ± 10.2", "unit": "mg/dL"}, {"measurement": "Liver lipid: Cholesterol %", "setting": "[1]", "result": 83.4, "unit": "%"}, {"measurement": "Liver lipid: Phospholipid %", "setting": "[1]", "result": 93.2, "unit": "%"}, {"measurement": "Liver lipid: Triglyceride %", "setting": "[1]", "result": 97.7, "unit": "%"}, {"measurement": "Serum lipid: Cholesterol %", "setting": "[1]", "result": 88.7, "unit": "%"}, {"measurement": "Serum lipid: Phospholipid %", "setting": "[1]", "result": 87.8, "unit": "%"}, {"measurement": "Serum lipid: Triglyceride %", "setting": "[1]", "result": 71.6, "unit": "%"}, {"measurement": "Liver lipid: Cholesterol content", "setting": "[2]", "result": "19.7 ± 0.8", "unit": "mg/total liver weight"}, {"measurement": "Liver lipid: Phospholipid content", "setting": "[2]", "result": "175.1 ± 7.3", "unit": "mg/total liver weight"}, {"measurement": "Liver lipid: Triglyceride content", "setting": "[2]", "result": "24.4 ± 2.0", "unit": "mg/total liver weight"}, {"measurement": "Serum lipid: Cholesterol content", "setting": "[2]", "result": "53.2 ± 1.9", "unit": "mg/dL"}, {"measurement": "Serum lipid: Phospholipid content", "setting": "[2]", "result": "95.1 ± 3.2", "unit": "mg/dL"}, {"measurement": "Serum lipid: Triglyceride content", "setting": "[2]", "result": "56.0 ± 5.6", "unit": "mg/dL"}, {"measurement": "Liver lipid: Cholesterol %", "setting": "[2]", "result": 89.5, "unit": "%"}, {"measurement": "Liver lipid: Phospholipid %", "setting": "[2]", "result": 89.7, "unit": "%"}, {"measurement": "Liver lipid: Triglyceride %", "setting": "[2]", "result": 61.5, "unit": "%"}, {"measurement": "Serum lipid: Cholesterol %", "setting": "[2]", "result": 83.6, "unit": "%"}, {"measurement": "Serum lipid: Phospholipid %", "setting": "[2]", "result": 83.9, "unit": "%"}, {"measurement": "Serum lipid: Triglyceride %", "setting": "[2]", "result": 65.0, "unit": "%"}]}, {"smiles": "O=C(CCS)N[C@@H](Cc1c[nH]cn1)C(=O)O", "note": "[Compound 2, N-(3-mercaptopropionyl)-L-histidine]", "values": [{"measurement": "LD50 at 168 h", "setting": "[3]", "result": 4040, "unit": "mg/kg"}, {"measurement": "Liver lipid: Cholesterol content", "setting": "[1]", "result": "60.3 ± 4.0", "unit": "mg/total liver weight"}, {"measurement": "Liver lipid: Phospholipid content", "setting": "[1]", "result": "116.4 ± 4.2", "unit": "mg/total liver weight"}, {"measurement": "Liver lipid: Triglyceride content", "setting": "[1]", "result": "17.1 ± 1.5", "unit": "mg/total liver weight"}, {"measurement": "Serum lipid: Cholesterol content", "setting": "[1]", "result": "246.9 ± 27.8", "unit": "mg/dL"}, {"measurement": "Serum lipid: Phospholipid content", "setting": "[1]", "result": "173.9 ± 7.0", "unit": "mg/dL"}, {"measurement": "Serum lipid: Triglyceride content", "setting": "[1]", "result": "79.2 ± 4.9", "unit": "mg/dL"}, {"measurement": "Liver lipid: Cholesterol %", "setting": "[1]", "result": 96.0, "unit": "%"}, {"measurement": "Liver lipid: Phospholipid %", "setting": "[1]", "result": 96.4, "unit": "%"}, {"measurement": "Liver lipid: Triglyceride %", "setting": "[1]", "result": 98.3, "unit": "%"}, {"measurement": "Serum lipid: Cholesterol %", "setting": "[1]", "result": 81.4, "unit": "%"}, {"measurement": "Serum lipid: Phospholipid %", "setting": "[1]", "result": 85.5, "unit": "%"}, {"measurement": "Serum lipid: Triglyceride %", "setting": "[1]", "result": 69.7, "unit": "%"}, {"measurement": "Liver lipid: Cholesterol content", "setting": "[2]", "result": "18.9 ± 0.4", "unit": "mg/total liver weight"}, {"measurement": "Liver lipid: Phospholipid content", "setting": "[2]", "result": "163.6 ± 1.7", "unit": "mg/total liver weight"}, {"measurement": "Liver lipid: Triglyceride content", "setting": "[2]", "result": "30.8 ± 4.5", "unit": "mg/total liver weight"}, {"measurement": "Serum lipid: Cholesterol content", "setting": "[2]", "result": "45.4 ± 0.4", "unit": "mg/dL"}, {"measurement": "Serum lipid: Phospholipid content", "setting": "[2]", "result": "93.4 ± 4.8", "unit": "mg/dL"}, {"measurement": "Serum lipid: Triglyceride content", "setting": "[2]", "result": "49.5 ± 5.5", "unit": "mg/dL"}, {"measurement": "Liver lipid: Cholesterol %", "setting": "[2]", "result": 85.9, "unit": "%"}, {"measurement": "Liver lipid: Phospholipid %", "setting": "[2]", "result": 83.8, "unit": "%"}, {"measurement": "Liver lipid: Triglyceride %", "setting": "[2]", "result": 77.6, "unit": "%"}, {"measurement": "Serum lipid: Cholesterol %", "setting": "[2]", "result": 71.4, "unit": "%"}, {"measurement": "Serum lipid: Phospholipid %", "setting": "[2]", "result": 82.4, "unit": "%"}, {"measurement": "Serum lipid: Triglyceride %", "setting": "[2]", "result": 57.5, "unit": "%"}]}]}
